Test results taken from patent US9409905B2, “Antibacterial compounds and methods for use” (PTC THERAPEUTICS, INC., priority 2011, dated 2016).
Converted amounts (≈) assume the structure as drawn.

Tests used:
E. coli ELZ4251 = test: Antibacterial activity, MIC, multi-drug resistant clinical isolate (Table 3); type: cell-based; settings: Escherichia coli
Text: (§1) The antibacterial activity from a microbroth dilution method may be presented as the minimum inhibitory concentration (MIC in μg/mL). The MIC value is the lowest concentration of drug which prevents macroscopically visible growth under test conditions.
(§2) Antibacterial activity of test compounds against E. coli ELZ4000 and E. coli ELZ4251 multi-drug resistant clinical isolates is shown in Table 3.

E. coli ELZ4000 = test: as above; type: cell-based; settings: Escherichia coli, ELZ4000, read-out: MIC ELZ4000
Text: as §1, §2

[1] = tested on: Escherichia coli (E. coli) BAS849; test: Antibacterial activity, microbroth dilution MIC (Table 1); type: cell-based; settings: microbroth dilution, super sensitive Gram-negative E. coli BAS849, read-out: MIC, BAS849
Outline: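 In a microbroth dilution test, the minimum inhibitory concentration was defined as the lowest compound level preventing growth seen by eye, and was given in μg/mL.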

[2] = tested on: Staphylococcus aureus (S. aureus) 29213; test: as above; type: cell-based; settings: microbroth dilution, Gram-positive S. aureus 29213, read-out: MIC, 29213
Outline: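 Using broth microdilution, MIC endpoints (μg/mL) mark where visible growth no longer appears; the panel spans sensitive and control Gram-negative strains plus a Gram-positive strain.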

[3] = tested on: Pseudomonas aeruginosa (P. aeruginosa) 27853; test: Antibacterial activity, MIC (Table 5); type: cell-based; settings: P. aeruginosa 27853, read-out: MIC, 27853
Outline: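 Compounds are serially diluted in broth and inoculated with the organism. Growth is then inspected macroscopically, and the lowest concentration showing none is taken as the MIC (μg/mL).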

E. coli LZ3111 = test: Antibacterial activity, MIC, quinolone resistant strain (Table 2); type: cell-based; settings: Escherichia coli, LZ3111, read-out: MIC LZ3111
Outline: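 Strain carries mutations conferring high-level quinolone resistance; tested by microbroth dilution, MIC recorded in μg/mL as lowest concentration preventing visible growth.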

E. coli 25922 = test: Antibacterial activity, microbroth dilution MIC (Table 1); type: cell-based, Escherichia coli; settings: Escherichia coli; microbroth dilution; control Gram-negative E. coli 25922 strain; read-out: MIC, 25922
Outline: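 Values are MICs (μg/mL): the smallest drug amount at which macroscopically visible bacterial growth is absent under assay conditions, from a microdilution method in broth.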

[4] = tested on: Acinetobacter baumannii (A. baumannii) BAA747; test: Antibacterial activity, MIC (Table 4); type: cell-based; settings: A. baumannii BAA747, read-out: MIC, BAA747
Outline: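 Compounds are serially diluted in microbroth, bacteria are grown under the test conditions, and growth is then inspected macroscopically. The lowest concentration without visible growth is reported as the MIC (μg/mL).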

| SMILES | MIC (E. coli ELZ4251) | MIC (E. coli ELZ4000) | MIC [1] | MIC [2] | MIC [3] | MIC (E. coli LZ3111) | MIC (E. coli 25922) | MIC [4] |
| --- | --- | --- | --- | --- | --- | --- | --- | --- |
| Cn1c(CN2CCC2)cc2cc(-c3cc(O)c(C(=O)O)c(=O)[nH]3)ccc21 [Cpd 328, 6-(2-(azetidin-1-ylmethyl)-1-methyl-1H-indol-5-yl)-4-hydroxy-2-oxo-1,2-dihydropyridine-3-carboxylic acid] | 12.5 to 150 µg/mL (≈ 35.4 to 424 µM) | 12.5 to 150 µg/mL (≈ 35.4 to 424 µM) | 3.5 to 12.5 µg/mL (≈ 9.9 to 35.4 µM) | 12.5 to 150 µg/mL (≈ 35.4 to 424 µM) | 12.5 to 150 µg/mL (≈ 35.4 to 424 µM) | 3.5 to 12.5 µg/mL (≈ 9.9 to 35.4 µM) | 12.5 to 150 µg/mL (≈ 35.4 to 424 µM) | 12.5 to 150 µg/mL (≈ 35.4 to 424 µM) |
| CCc1c(-c2ccc3c(c2)cc(CNCCN(C)C)n3C)[nH]c(=O)c(C(=O)O)c1O [Cpd 302, 6-(2-((2-(dimethylamino)ethylamino)methyl)-1-methyl-1H-indol-5-yl)-5-ethyl-4-hydroxy-2-oxo-1,2-dihydropyridine-3-carboxylic acid] | 3.5 to 12.5 µg/mL (≈ 8.49 to 30.3 µM) | 12.5 to 150 µg/mL (≈ 30.3 to 364 µM) | < 1 µg/mL | 12.5 to 150 µg/mL (≈ 30.3 to 364 µM) | 12.5 to 150 µg/mL (≈ 30.3 to 364 µM) | 3.5 to 12.5 µg/mL (≈ 8.49 to 30.3 µM) | 1 to 3.5 µg/mL (≈ 2.42 to 8.49 µM) | 3.5 to 12.5 µg/mL (≈ 8.49 to 30.3 µM) |
| Cn1c(CN2CCCC2)cc2cc(-c3[nH]c(=O)c(C(=O)O)c(O)c3C3CC3)ccc21 [Cpd 323, 5-cyclopropyl-4-hydroxy-6-(1-methyl-2-(pyrrolidin-1-ylmethyl)-1H-indol-5-yl)-2-oxo-1,2-dihydropyridine-3-carboxylic acid] | 3.5 to 12.5 µg/mL (≈ 8.59 to 30.7 µM) | 12.5 to 150 µg/mL (≈ 30.7 to 368 µM) | 1 to 3.5 µg/mL (≈ 2.45 to 8.59 µM) | 12.5 to 150 µg/mL (≈ 30.7 to 368 µM) | 12.5 to 150 µg/mL (≈ 30.7 to 368 µM) | 3.5 to 12.5 µg/mL (≈ 8.59 to 30.7 µM) | 12.5 to 150 µg/mL (≈ 30.7 to 368 µM) | 12.5 to 150 µg/mL (≈ 30.7 to 368 µM) |
| CCc1c(-c2ccc3c(c2)cc(CN2C[C@H]4C[C@@H](NC)C[C@H]4C2)n3C)[nH]c(=O)c(C(=O)O)c1O [Cpd 289, 5-ethyl-4-hydroxy-6-(1-methyl-2-(((3aR,5r,6aS)-5-(methylamino)hexahydrocyclopenta[c]pyrrol-2(1H)-yl)methyl)-1H-indol-5-yl)-2-oxo-1,2-dihydropyridine-3-carboxylic acid] | 12.5 to 150 µg/mL (≈ 26.9 to 323 µM) | 12.5 to 150 µg/mL (≈ 26.9 to 323 µM) | 1 to 3.5 µg/mL (≈ 2.15 to 7.53 µM) | 12.5 to 150 µg/mL (≈ 26.9 to 323 µM) | 12.5 to 150 µg/mL (≈ 26.9 to 323 µM) | 3.5 to 12.5 µg/mL (≈ 7.53 to 26.9 µM) | 12.5 to 150 µg/mL (≈ 26.9 to 323 µM) | 12.5 to 150 µg/mL (≈ 26.9 to 323 µM) |
| CCc1c(-c2ccc3c(c2)cc(CN2CCCC2CN(C)C)n3C)[nH]c(=O)c(C(=O)O)c1O (stereo not shown) [Cpd 202, 6-(2-((2-((dimethylamino)methyl)pyrrolidin-1-yl)methyl)-1-methyl-1H-indol-5-yl)-5-ethyl-4-hydroxy-2-oxo-1,2-dihydropyridine-3-carboxylic acid] | 12.5 to 150 µg/mL (≈ 27.6 to 331 µM) | 12.5 to 150 µg/mL (≈ 27.6 to 331 µM) | < 1 µg/mL | 12.5 to 150 µg/mL (≈ 27.6 to 331 µM) | 12.5 to 150 µg/mL (≈ 27.6 to 331 µM) | 3.5 to 12.5 µg/mL (≈ 7.73 to 27.6 µM) | 3.5 to 12.5 µg/mL (≈ 7.73 to 27.6 µM) | 12.5 to 150 µg/mL (≈ 27.6 to 331 µM) |
| CCc1c(-c2ccc3c(c2)cc(CN2C[C@H]4C[C@@H](N)C[C@H]4C2)n3C)[nH]c(=O)c(C(=O)O)c1O [Cpd 287, 6-(2-(((3aR,5r,6aS)-5-aminohexahydrocyclopenta[c]pyrrol-2(1H)-yl)methyl)-1-methyl-1H-indol-5-yl)-5-ethyl-4-hydroxy-2-oxo-1,2-dihydropyridine-3-carboxylic acid] | 12.5 to 150 µg/mL (≈ 27.7 to 333 µM) | 12.5 to 150 µg/mL (≈ 27.7 to 333 µM) | < 1 µg/mL | 3.5 to 12.5 µg/mL (≈ 7.77 to 27.7 µM) | 12.5 to 150 µg/mL (≈ 27.7 to 333 µM) | 3.5 to 12.5 µg/mL (≈ 7.77 to 27.7 µM) | 3.5 to 12.5 µg/mL (≈ 7.77 to 27.7 µM) |  |
| CCc1c(-c2ccc3c(c2)cc(CN(C)C2CCCC2)n3C)[nH]c(=O)c(C(=O)O)c1O.Cl [Cpd 211, 6-(2-((cyclopentyl(methyl)amino)methyl)-1-methyl-1H-indol-5-yl)-5-ethyl-4-hydroxy-2-oxo-1,2-dihydropyridine-3-carboxylic acid hydrochloride] | 12.5 to 150 µg/mL | 12.5 to 150 µg/mL | < 1 µg/mL | 3.5 to 12.5 µg/mL | 12.5 to 150 µg/mL | 3.5 to 12.5 µg/mL | 1 to 3.5 µg/mL |  |
| CCc1c(-c2ccc3c(c2)cc(CN2C[C@H]4CCC[C@@H](N)[C@H]4C2)n3C)[nH]c(=O)c(C(=O)O)c1O [Cpd 284, 6-(2-(((3aR,4R,7aS)-4-amino-1H-isoindol-2(3H,3aH,4H,5H,6H,7H,7aH)-yl)methyl)-1-methyl-1H-indol-5-yl)-5-ethyl-4-hydroxy-2-oxo-1,2-dihydropyridine-3-carboxylic acid] | 12.5 to 150 µg/mL (≈ 26.9 to 323 µM) | 12.5 to 150 µg/mL (≈ 26.9 to 323 µM) | < 1 µg/mL | 12.5 to 150 µg/mL (≈ 26.9 to 323 µM) | 3.5 to 12.5 µg/mL (≈ 7.53 to 26.9 µM) | 3.5 to 12.5 µg/mL (≈ 7.53 to 26.9 µM) | 1 to 3.5 µg/mL (≈ 2.15 to 7.53 µM) |  |
